# Reference: patent publication US11419916B2, “Methods and compositions for inducing differentiation of human brown adipocyte progenitors” (Energesis Pharmaceuticals, Inc., priority 2014, dated 2022)
# Where a name gives a salt, the structure may show the parent alone.
# B1: BMP-7: recombinant human bone morphogenetic protein 7, UniProt P18075 (protein, UniProt P18075 293-431, looked up)
# Bone morphogenetic protein 7: STGSKQRSQNRSKTPKNQEALRMANVAENSSSDQRQACKKHELYVSFRDLGWQDWIIAPEGYAAYYCEGECAFPLNSYMNATNHAIVQTLVHFINPETVPKPCCAPTQLNAISVLYFDDSSNVILKKYRNMVVRACGCH
# Columns and labels:
# [1] = tested on: CD31-cells (BAT progenitor cells isolated from human skeletal muscle); assay: Quantification of UCP1 and PPARγ2 mRNA (normalized to cyclophilin A) by multiplexed TaqMan real-time PCR to quantify differentiation into brown adipocytes; format: cell-based
# Source text: A robust method, previously disclosed in WO2013071063 and incorporated herein by reference, was used for detection of CD31-cell differentiation into brown adipocytes by simultaneously quantifying mRNA species corresponding to the brown adipocyte marker UCP1, the adipocyte marker PPARγ2, and the “housekeeping” gene cyclophilin A which was used as the internal control.
# This method permits analysis of a large number of samples to identify agents that enhance the differentiation of CD31-cells into brown adipocytes. When differentiated into brown adipocytes CD31-cells express much higher levels of UCP1 and PPARγ2 mRNA for a given level of cyclophilin A. UCP1 and PPARγ2 mRNA levels normalized to cyclophilin A mRNA levels give an indication of the level of differentiation of the CD31-cells into brown adipocytes, independent of the total number of cells in the sample.
# Quantification of UCP1, PPARγ2 and cyclophilin A mRNA by multiplexed TaqMan real-time PCR was thus used to quantify differentiation of the CD31-cells into brown adipocytes.
# Cells were seeded at 10,000 per cm^2 in 0.2% gelatin coated plates (48-well tissue culture, Chemglass #CLS-3500-048), cultured until confluency (2-4 days) at 37° C. in Endothelial cell growth medium-2 (EGM2) (BulletKit growth medium, Lonza #CC-3162) and until differentiation (10-16 more days). After 2 or 3 days in EGM2 medium the cells were induced to differentiate by replacing the medium with an adipogenic medium, which is a modification of the adipogenic medium described by Rodriguez et al. and may or may not contain a differentiation inducing agent (e.g., PPARγ agonist). […] If rosiglitazone is used as a differentiation-inducing agent, it can be supplied at 1 μM or any other concentration sufficient to induce differentiation of BAT progenitor cells into adipocytes.
# Total RNA was prepared from cells using PureLink RNA Isolation Kit (Invitrogen #12183-016) First strand cDNA were synthesized using the High Capacity cDNA Reverse Transcription kit (Applied Biosystems, Foster City, Calif.) and random primers.
# Quantitative real-time PCR was performed using an Applied Biosystems StepOnePlus™ instrument, TaqMan Gene Expression Master Mix (Applied Biosystems #4369016), and custom TaqMan gene expression probes and primers for human uncoupling protein-1 “UCP1” (GenBank NM_021833) and for human peptidylprolyl isomerase A “cyclophilin A” (GenBank NM_021130).
# Cyclophilin A was used as a control to account for any variations due to the efficiency of reverse transcription. Arbitrary units were determined by normalizing target mRNA levels to cyclophilin A mRNA levels (based on Cts).
# CD31-cells = assay: Light microscopic photos of cell morphology, brown adipocyte differentiation; format: cell-based, human; conditions: FIGS. 23A-23H
# Description: Cells were seeded at 10,000 per cm^2 in 0.2% gelatin coated plates (48-well tissue culture, Chemglass #CLS-3500-048), cultured until confluency (2-4 days) at 37° C. in Endothelial cell growth medium-2 (EGM2) (BulletKit growth medium, Lonza #CC-3162) and until differentiation (10-16 more days). After 2 or 3 days in EGM2 medium the cells were induced to differentiate by replacing the medium with an adipogenic medium, which is a modification of the adipogenic medium described by Rodriguez et al. and may or may not contain a differentiation inducing agent (e.g., PPARγ agonist). The MDM described above contains: DMEM/Ham's F-12 50/50 Mix (3.151 g/l, 17.5 mM D-glucose, […]) (Cellgro #10-090-CV), 5 μg/ml (0.86 μM) insulin, 1 μM dexamethasone, 100 μM 3-isobutyl-1-methylxanthine, 0.2 nM 3,3′,5-triiodo-L-thyronine, 10 μg/ml (127 nM) transferrin, and 1% penicillin-streptomycin. If rosiglitazone is used as a differentiation-inducing agent, it can be supplied at 1 μM or any other concentration sufficient to induce differentiation of BAT progenitor cells into adipocytes.
# Pictures of cells were taken using a hand-held digital camera (Nikon Coolpix 950) and inverted microscope (Nikon TMS) used for cell culture observations; images were optimized using Adobe Photoshop Elements 8 functions for Auto Contrast and Auto Levels.
# [2] = tested on: CD31-cells (brown adipocyte progenitors); assay: Quantification of UCP1 protein by immunohistochemistry (IHC); format: cell-based, human; conditions: total intensity of UCP1 signal normalized to cell number
# Description: Differentiation of brown adipocyte progenitors into brown adipocytes can be detected through quantification of UCP1 protein by immunohistochemistry (IHC).
# Culturing and differentiation of CD31-cells into brown adipocytes were performed using adipogenic differentiation medium lacking (Minimal Differentiation Medium, MDM) or containing 1 μM rosiglitazone (Reference Differentiation Medium, RDM). After 15 days of differentiation cells were fixed with 4% Paraformaldehyde PBS pH 7.4, and incubated with a UCP1 antibody (Abcam ab23841) and Alexafluor 488 goat anti-rabbit antibody to quantify relative UCP1 levels (green) according to standard protocols. Prior to fixation of cells, nuclei were labeled with 5 μM DAPI (blue) for 10 minutes. Each treatment condition was evaluated in triplicate in a 96-well plate corresponding to approximately 360-480 cells for each data point in total. The InCell 1000 Developer Toolbox software was used to develop an automated cell detection script to measure UCP1 signal intensity, using the nuclei and cytoplasm detection algorithms. As a readout, total intensity of UCP1 signal within the cell was used, normalized to cell number.
Molecule,"differentiation of BAT progenitor cells into brown adipocytes and/or expression of UCP1, PPARγ2 mRNA [1]",brown adipocyte differentiation (light microscopy) (CD31-cells),"UCP1 protein signal (IHC), differentiation of brown adipocyte progenitors into brown adipocytes [2]"
O=c1c(O)c(-c2ccc(O)cc2)oc2cc(O)cc(O)c12 [kaempferol],promote the differentiation of BAT progenitor cells into brown adipocytes and/or induce the expression of UCP1,promote brown adipocyte formation,
CCN(CC)CCNC(=O)c1cc(S(C)(=O)=O)ccc1OC [Tiapride hydrochloride],,promote brown adipocyte formation,identified using this technique
CCOC(=O)Oc1c(OC)cc(C(=O)O[C@@H]2C[C@@H]3CN4CCc5c([nH]c6cc(OC)ccc56)[C@H]4C[C@@H]3[C@H](C(=O)OC)[C@H]2OC)cc1OC [Syrosingopine],,promote brown adipocyte formation,identified using this technique
O=C(O)c1cc(-c2ccc(F)cc2F)ccc1O [Diflunisal],,promote brown adipocyte formation,identified using this technique
CCCN(CCC)S(=O)(=O)c1ccc(C(=O)O)cc1 [Probenecid],,promote brown adipocyte formation,identified using this technique
B1,promote the differentiation of BAT progenitor cells into brown adipocytes and/or induce the expression of UCP1,promote brown adipocyte formation,
